Patent US20220177954A1, “NUCLEIC ACID PROBES” (CYTOTEST INC., priority 2020, published 2022)

What was measured:
[1] = test system: PC-3 cell lines wt, chd1 ko1, chd1 ko2; test: Viability cell proliferation assay (PrestoBlue) in PC-3 wt versus chd1 ko isogenic cell lines; format: cell-based, human; settings: CHD1 deficient (CRISPR-Cas9 knock out) PC-3 cells versus wild type, 24 hrs exposure, then 5 days drug-free
Protocol: PC-3 prostate cell line was purchased from ATCC® and grown in RPMI 1640 (Gibco) supplemented with 10% FBS (Gibco). RPE1-CHD1 knock out cells were provided by Alan D. D'Andrea's laboratory. Cells were incubated at 37° C. in 5% CO2, and regularly tested for Mycoplasma spp. contamination.
Full length SpCas9 ORF was introduced in PC-3 cell population by Lentiviral transduction using lentiCas9-Blast (Addgene #52962) construction. After antibiotics (blasticidin) selection, survival populations were single cell cloned, isogenic cell lines were generated and tested for Cas9 activity by cleavage assay.
CHD1 was targeted in stable CRISPR-Cas9 expressor isogenic PC-3 cell line using guide RNA CHD1_ex2_g1 (caccg[…]), resulting in PC-3 chd1 ko 1, and chd1 ko 2 homozygous loss cell lines.
Exponentially growing PC-3 cell lines wt, chd1 ko1, chd1 ko2 were seeded in 96-well plates (1000 cells/well) and incubated for 36 hrs to facilitate cell attachment. Identical cell numbers of seeded parallel isogenic lines were verified by the Celigo Imaging Cytometer after attachment.
Cells were exposed to Talazoparib (Selleckchem), Olaparib (MedChemExpress) and Bleomycin sulfate (Fisher Scientific) for 24 hrs, then kept in drug-free fresh media for 5 days until cell growth was determined by the addition of PrestoBlue (Invitrogen) and incubated for 2.5 hrs. Cell viability was determined by using the BioTek plate reader system. Fluorescence was recorded at 560 nm/590 nm, and values were calculated based on the fluorescence intensity. IC50 values were determined by using the AAT Bioquest IC50 calculator tool. P-values were calculated using student's t-test. P-values <0.05 were considered statistically significant.

CHD1 null cells = settings: cited from earlier work

For `O=C(c1cc(Cc2n[nH]c(=O)c3ccccc23)ccc1F)N1CCN(C(=O)C2CC2)CC1` [olaparib, Olaparib], which “increase in sensitivity upon CHD1 deletion” value (“increase” for short) [1] is on record?
The value was “approximately 5 fold”.

What about the “olaparib sensitivity of CHD1-deficient cancer cells” value (CHD1 null cells) of the same compound?
Its value is “relatively mild”.

For `Cn1ncnc1[C@H]1c2n[nH]c(=O)c3cc(F)cc(c23)N[C@@H]1c1ccc(F)cc1` [talazoparib, Talazoparib], which “increase” value [1] is on record?
Its value is 15-20 fold.

For Bleomycin sulfate, which “increase” value [1] is on record?
Its value is 5 fold.
